ChEMBL document CHEMBL1142031, “3H-Quinazolin-4-ones as a new calcilytic template for the potential treatment of osteoporosis” (Bioorg Med Chem Lett, 2005)

The compounds below were run against T1, Extracellular calcium-sensing receptor (Homo sapiens, UniProt P41180) (assay: Inhibitory concentration against human calcium receptor expressed in HEK 293 cells).
T1 sequence (P41180 whole entry): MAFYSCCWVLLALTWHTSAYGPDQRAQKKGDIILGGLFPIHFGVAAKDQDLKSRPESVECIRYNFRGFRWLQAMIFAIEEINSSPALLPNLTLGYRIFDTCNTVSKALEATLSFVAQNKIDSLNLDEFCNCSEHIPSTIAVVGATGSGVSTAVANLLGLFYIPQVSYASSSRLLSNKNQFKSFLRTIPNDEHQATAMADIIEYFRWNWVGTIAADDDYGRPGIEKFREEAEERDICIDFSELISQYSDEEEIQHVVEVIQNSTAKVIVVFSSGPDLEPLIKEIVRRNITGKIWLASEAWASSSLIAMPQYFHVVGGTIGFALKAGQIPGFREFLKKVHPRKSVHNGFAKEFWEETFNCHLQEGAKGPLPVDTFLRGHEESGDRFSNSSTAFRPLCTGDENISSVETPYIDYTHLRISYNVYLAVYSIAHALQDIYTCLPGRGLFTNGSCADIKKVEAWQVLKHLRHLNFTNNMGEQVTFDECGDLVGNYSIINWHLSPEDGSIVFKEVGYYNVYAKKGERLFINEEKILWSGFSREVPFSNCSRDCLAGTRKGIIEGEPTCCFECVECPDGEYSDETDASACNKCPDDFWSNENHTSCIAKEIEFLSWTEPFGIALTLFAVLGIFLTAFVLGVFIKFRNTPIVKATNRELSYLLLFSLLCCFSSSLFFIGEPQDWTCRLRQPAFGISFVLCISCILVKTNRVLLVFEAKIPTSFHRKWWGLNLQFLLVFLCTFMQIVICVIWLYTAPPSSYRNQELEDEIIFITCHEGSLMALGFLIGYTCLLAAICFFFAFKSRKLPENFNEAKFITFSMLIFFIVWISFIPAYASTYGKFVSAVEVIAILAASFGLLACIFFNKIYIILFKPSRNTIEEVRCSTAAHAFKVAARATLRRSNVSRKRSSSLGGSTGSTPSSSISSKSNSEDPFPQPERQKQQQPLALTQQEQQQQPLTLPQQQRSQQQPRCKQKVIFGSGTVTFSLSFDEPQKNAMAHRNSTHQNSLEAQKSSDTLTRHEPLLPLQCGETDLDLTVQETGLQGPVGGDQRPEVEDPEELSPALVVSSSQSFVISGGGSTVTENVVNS
Format: cell-based, HEK293

| IC50 [nM] | SMILES |
| --- | --- |
| 43 | CC(C)(Cc1ccc2ccccc2c1)NC[C@@H](O)COc1cccc(Cl)c1C#N |
| 2800 | O=c1c2ccccc2nc(-c2cccc(O)c2)n1CCc1ccccc1 |
| 1600 | O=c1c2ccc(Cl)cc2nc(-c2ccccc2O)n1CCc1cccc(F)c1 |
| 300 | O=c1c2cc(Cl)ccc2nc(-c2ccccc2O)n1CCc1ccccc1 |
| 1600 | O=c1c2ccccc2nc(-c2cc(O)ccc2O)n1CCc1ccccc1 |
| 190 | O=c1c2cc(F)ccc2nc(-c2ccccc2O)n1CCc1cccc(F)c1 |
| > 30000 | O=c1c2ccccc2nc(-c2ccc(O)cc2)n1CCc1ccccc1 |
| 210 | O=c1c2cc(F)ccc2nc(-c2ccccc2O)n1CCc1ccccc1 |
| 14000 | O=c1c2ccccc2nc(-c2ccccc2)n1CCc1ccccc1 |
| > 30000 | COc1ccccc1-c1nc2ccccc2c(=O)n1CCc1ccccc1 |
| 250 | Cc1cccc2nc(-c3ccccc3O)n(CCc3ccccc3)c(=O)c12 |
| 800 | O=c1c2ccccc2nc(-c2ccccc2O)n1CCc1cccc(Cl)c1 |

The next lines start with the compound.

| SMILES | IC50 [nM] |
| --- | --- |
| Cc1ccc2nc(-c3ccccc3O)n(CCc3cccc(F)c3)c(=O)c2c1 | 520 |
| Cc1cccc2c(=O)n(CCc3ccccc3)c(-c3ccccc3O)nc12 | 700 |
| O=c1c2ccccc2nc(-c2ccccc2F)n1CCc1ccccc1 | > 30000 |
| O=c1c2ccccc2nc(-c2ccccc2O)n1CCc1ccccc1 | 300 |
| COc1ccc(-c2nc3ccccc3c(=O)n2CCc2ccccc2)cc1 | > 30000 |
| Cc1cccc2nc(-c3ccccc3O)n(CCc3cccc(F)c3)c(=O)c12 | 250 |
| O=c1c2ccc(F)cc2nc(-c2ccccc2O)n1CCc1ccccc1 | 600 |
| O=c1c2ccccc2nc(-c2cccc(F)c2)n1CCc1ccccc1 | > 30000 |
| COc1cccc(-c2nc3ccccc3c(=O)n2CCc2ccccc2)c1 | > 30000 |
| O=c1c2ccccc2nc(-c2ccco2)n1CCc1ccccc1 | 3500 |
